Results on nine molecules are retold here after patent publication US8716303B2, “N-(hetero)aryl-pyrrolidine derivatives of pyrazol-4-yl-pyrrolo[2,3-d]pyrimidines and pyrrol-3-yl-pyrrolo[2,3-d]pyrimidines as janus kinase inhibitors” (Incyte Corporation, priority 2009, dated 2014).

The structures appear in SMILES notation. Counter-ions that a name gives are not always drawn.

Assay [1] addresses T1, human JAK1 (a.a. 837-1142) (Homo sapiens, UniProt P23458).
T1 construct: human JAK1 (a.a. 837-1142); His tag (N); made in house; host or cells: insect cells (baculovirus)
Put plainly: In vitro JAK kinase assay (HTRF, phosphorylation of a biotinylated peptide), JAK1. It counts as biochemical. The note with it: Assay Conditions 1 mM ATP. A digest of the protocol: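 His-tagged catalytic domains (JAK1 a.a. 837-1142, JAK2 a.a. 828-1132) from insect cells phosphorylate 500 nM biotinylated peptide in 50 mM Tris pH 7.8, 100 mM NaCl, 5 mM DTT; ATP at Km (90 μM JAK1, 30 μM JAK2) or 1 mM, as indicated. 1 h at RT; EDTA stop, HTRF readout; IC50s.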
In general terms: Time-resolved FRET reads energy transfer from a long-lived donor to a nearby acceptor.

For the next assay, the target named is T2, Jak2 (a.a. 828-1132) (Homo sapiens, UniProt O60674).
T2 construct: Jak2 (a.a. 828-1132); His tag (N); made in house; host or cells: insect cells (baculovirus)
T2 sequence (O60674 828-1132): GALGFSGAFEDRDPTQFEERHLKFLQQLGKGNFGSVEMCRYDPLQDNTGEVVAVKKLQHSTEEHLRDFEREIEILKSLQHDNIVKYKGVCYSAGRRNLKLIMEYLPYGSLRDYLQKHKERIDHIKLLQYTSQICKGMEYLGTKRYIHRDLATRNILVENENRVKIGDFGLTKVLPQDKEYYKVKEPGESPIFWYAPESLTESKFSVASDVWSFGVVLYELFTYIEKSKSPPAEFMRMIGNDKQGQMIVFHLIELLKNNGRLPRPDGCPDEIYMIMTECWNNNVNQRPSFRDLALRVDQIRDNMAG
As to the kind of experiment: In vitro JAK kinase assay (HTRF, phosphorylation of a biotinylated peptide), JAK2, reported as JAK2/JAK1 ratio. Particulars: Assay Conditions 1 mM ATP. It counts as biochemical.

T1 sequence (P23458 849-1154): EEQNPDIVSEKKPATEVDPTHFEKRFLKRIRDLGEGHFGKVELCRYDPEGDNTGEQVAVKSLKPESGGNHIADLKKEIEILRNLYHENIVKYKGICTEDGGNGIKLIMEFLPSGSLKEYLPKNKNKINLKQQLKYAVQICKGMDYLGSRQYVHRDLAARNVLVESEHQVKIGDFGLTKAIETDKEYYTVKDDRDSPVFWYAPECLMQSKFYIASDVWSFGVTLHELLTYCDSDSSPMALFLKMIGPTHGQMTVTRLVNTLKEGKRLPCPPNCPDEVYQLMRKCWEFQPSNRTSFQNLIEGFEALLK

The IC50 is the midpoint of a concentration-inhibition curve. A lower IC50 goes with inhibition by little substance. In assay [1], `COc1cccc(N2CC[C@H]([C@H](CC#N)n3cc(-c4ncnc5[nH]ccc45)cn3)C2)c1C#N` [Example 55, 2-((3S)-3-{(1S)-2-cyano-1-[4-(7H-pyrrolo[2,3-d]pyrimidin-4-yl)-1H-pyrazol-1-yl]ethyl}pyrrolidin-1-yl)-6-methoxybenzonitrile trifluoroacetate salt] had a half-inhibitory concentration (IC50) below 50 nM. Besides, on Jak2 (a.a. 828-1132), the “JAK2/JAK1 IC50 ratio” value is given as above 8.

Turning to `N#CCC(C1CCN(c2ncc3c(c2C#N)SCC3)C1)n1ccc(-c2ncnc3[nH]ccc23)c1` (single isomer, unassigned) [Example 174-1, 6-(3-{2-cyano-1-[3-(7H-pyrrolo[2,3-d]pyrimidin-4-yl)-1H-pyrrol-1-yl]ethyl}pyrrolidin-1-yl)-2,3-dihydrothieno[3,2-c]pyridine-7-carbonitrile], the IC50 in assay [1] is below 50 nM. The “JAK2/JAK1 IC50 ratio” value on Jak2 (a.a. 828-1132) turned out to be 28.5.

The molecule `N#CC[C@@H]([C@H]1CCN(c2c(F)cccc2C#N)C1)n1cc(-c2ncnc3[nH]ccc23)cn1` [Example 58, 2-((3S)-3-{(1S)-2-cyano-1-[4-(7H-pyrrolo[2,3-d]pyrimidin-4-yl)-1H-pyrazol-1-yl]ethyl}pyrrolidin-l-yl)-3-fluorobenzonitrile trifluoroacetate salt] displayed an IC50 in assay [1] below 50 nM. The “JAK2/JAK1 IC50 ratio” value on Jak2 (a.a. 828-1132) was determined as 8.

In turn, `N#CCC(C1CCN(c2ccc3c(n2)[S+]([O-])CC3)C1)n1ccc(-c2ncnc3[nH]ccc23)c1` (stereo not drawn) [Example 35, 3-[1-(1-oxido-2,3-dihydrothieno[2,3-b]pyridin-6-yl)pyrrolidin-3-yl]-3-[3-(7H-pyrrolo[2,3-d]pyrimidin-4-yl)-1H-pyrrol-1-yl]propanenitrile] showed an IC50 in assay [1] below 50 nM. On Jak2 (a.a. 828-1132), the “JAK2/JAK1 IC50 ratio” value is listed as 4.2.

On to `N#CC[C@@H]([C@H]1CCN(c2nc(F)c(F)cc2F)C1)n1cc(-c2ncnc3[nH]ccc23)cn1` [Example 67, (3S)-3-[4-(7H-pyrrolo[2,3-d]pyrimidin-4-yl)-1H-pyrazol-1-yl]-3-[(3S)-1-(3,5,6-trifluoropyridin-2-yl)pyrrolidin-3-yl]propanenitrile trifluoroacetate salt], for which, in assay [1], the IC50 was below 50 nM. On Jak2 (a.a. 828-1132), the “JAK2/JAK1 IC50 ratio” value stood at 5.6.

For `N#CCC(C1CCN(c2ncc3c(c2C#N)S(=O)(=O)CC3)C1)n1ccc(-c2ncnc3[nH]ccc23)c1` (racemic) [Example 171-rac, 6-(3-{2-cyano-1-[3-(7H-pyrrolo[2,3-d]pyrimidin-4-yl)-1H-pyrrol-1-yl]ethyl}pyrrolidin-1-yl)-2,3-dihydrothieno[3,2-c]pyridine-7-carbonitrile 1,1-dioxide], the IC50 in assay [1] was below 50 nM. Further, on Jak2 (a.a. 828-1132), the “JAK2/JAK1 IC50 ratio” value is recorded as 21.9.

In the case of `N#CCC(C1CCN(c2ncc3ccoc3c2C#N)C1)n1cc(-c2ncnc3[nH]ccc23)cn1` (single isomer, unassigned) [Example 169, 6-(3-{2-cyano-1-[4-(7H-pyrrolo[2,3-d]pyrimidin-4-yl)-1H-pyrazol-1-yl]ethyl}pyrrolidin-1-yl)furo[3,2-c]pyridine-7-carbonitrile], the IC50 in assay [1] is below 50 nM. Moreover, at Jak2 (a.a. 828-1132), the “JAK2/JAK1 IC50 ratio” value is on record as above 13.3.

In assay [1], `N#CC[C@@H]([C@H]1CCN(c2nc(Cl)c(N)cc2F)C1)n1cc(-c2ncnc3[nH]ccc23)cn1` [Example 91A, (S)-3-(4-(7H-pyrrolo[2,3-d]pyrimidin-4-yl)-1H-pyrazol-1-yl)-3-((S)-1-(5-amino-6-chloro-3-fluoropyridin-2-yl)pyrrolidin-3-yl)propanenitrile bis(trifluoroacetate)] came in with an IC50 below 50 nM. Also, at Jak2 (a.a. 828-1132), the “JAK2/JAK1 IC50 ratio” value was 6.9.

As to `O=S1(=O)CCc2cc(F)c(N3CC[C@H](C(CF)n4cc(-c5ncnc6[nH]ccc56)cn4)C3)nc21` (stereo partly drawn) [Example 86, 4-(1-{2-fluoro-1-[(3S)-1-(5-fluoro-1,1-dioxido-2,3-dihydrothieno[2,3-b]pyridin-6-yl)pyrrolidin-3-yl]ethyl}-1H-pyrazol-4-yl)-7H-pyrrolo[2,3-d]pyrimidine tetrakis(trifluoroacetate)], in assay [1], the IC50 is below 50 nM. Also, at Jak2 (a.a. 828-1132), the “JAK2/JAK1 IC50 ratio” value is reported as 13.0.
